# pEC50: −log10 of the molar value.
# Molecular target: T1, human GPR119 (Homo sapiens, UniProt Q8TDV5)
# T1 construct: expression vector for human GPR119 cDNA (Acc. No. NP_848566); expressed in transfected cells
# T1 sequence (Q8TDV5 1-335): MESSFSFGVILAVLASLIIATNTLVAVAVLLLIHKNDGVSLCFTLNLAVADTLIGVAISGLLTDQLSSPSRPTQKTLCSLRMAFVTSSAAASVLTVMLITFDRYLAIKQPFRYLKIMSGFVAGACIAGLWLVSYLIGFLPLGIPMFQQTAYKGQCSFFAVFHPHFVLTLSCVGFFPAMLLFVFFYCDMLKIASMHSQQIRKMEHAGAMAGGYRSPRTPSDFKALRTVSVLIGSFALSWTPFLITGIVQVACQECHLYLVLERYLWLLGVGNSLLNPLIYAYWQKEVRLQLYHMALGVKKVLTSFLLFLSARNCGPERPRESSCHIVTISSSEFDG
# Assay: AlphaScreen cAMP assay in Min-6/hGPR119 cells (activation of GPR119, intracellular cAMP)
# Format: cell-based
# Conditions: MIN6 cells stably transfected with human GPR119; cAMP by AlphaScreen after 45 minutes incubation at room temperature
# Experimental: The compounds of formula I according to the invention modulate the activity of the G-protein-coupled receptor GPR119. The effect of the compounds on the activation of GPR119 and on the stimulation of intracellular cAMP concentration is determined using the AlphaScreen cAMP Assay Kit (Cat.No.#6760625R) made by PerkinElmer.
# MIN6 cells [Miyazaki J et al. Endocrinology. 1990 July; 127(1):126-32] are stably transfected with an expression vector for human GPR119 cDNA (Acc. No. NP_848566). Min-6/hGPR119 cells are cultured in DMEM, 10% FBS, 50 μM β-mercaptoethanol, 0.3 mg/mL Geniticin, 2 mM GlutaMAX at 37° C. 5% CO2. For the assay, the cells are seeded in Optiplates (white, 384-well, 160W— barcoded, TC, sterile with lid, Cat.No.#6007688 (Perkin Elmer); 10000 cells/well; 50 μl). The plates covered with lids are then incubated for 24 hours at 37° C./5% CO2. After the medium is aspirated from the wells completely, 10 μl of the test compound are added, the compounds are diluted using stimulating buffer (140 mM NaCl, 3.6 mM KCl, 0.5 mM NaH2PO4, 0.5 mM MgSO4, 1.5 mM CaCl2, 10 mM Hepes, 5 mM NaHCO3; pH 7.4. 0.5 mM IBMX and 0.1% BSA, the final DMSO concentration is 1%). After 45 minutes incubation at room temperature (approx. 20° C.), the cAMP concentrations are determined using the AlphaScreen cAMP Assay Kit (Cat.No.#6760625R from PerkinElmer).
row,SMILES,pEC50
1,"CC(C)(C)OC(=O)N1CCC(C2Cc3cc(-c4ccc(CS(C)(=O)=O)cc4F)ncc3O2)CC1 (single isomer, unassigned) [Example 75]",7.85
2,"CC(C)(C)OC(=O)N1CCC(C2Cc3cc(-c4ccc(CS(C)(=O)=O)cc4F)ncc3O2)CC1 (single isomer, unassigned) [Example 76]",7.26
3,"CC(C)OC(=O)N1CCC(C2Cc3cc(-c4ccc(S(C)(=O)=O)cc4)ccc3O2)CC1 (centres unmarked) [Example 1, 4-[5-(4-Methanesulfonyl-phenyl)-2,3-dihydro-benzofuran-2-yl]-piperidine-1-carboxylic acid isopropyl ester]",7.49
4,"CC(C)OC(=O)N1CCC(C2Cc3cc(-c4ccc(S(C)(=O)=O)nc4)ccc3O2)CC1 (centres unmarked) [Example 2, 4-[5-(6-Methanesulfonyl-pyridin-3-yl)-2,3-dihydro-benzofuran-2-yl]-piperidine-1-carboxylic acid isopropyl ester]",7.15
5,"CC(C)OC(=O)N1CCC(C2Cc3cc(-c4ccc(S(C)(=O)=O)cn4)ccc3O2)CC1 (centres unmarked) [Example 3, 4-[5-(5-Methanesulfonyl-pyridin-2-yl)-2,3-dihydro-benzofuran-2-yl]-piperidine-1-carboxylic acid isopropyl ester]",7.41
6,"CC(C)OC(=O)N1CCC(C2Cc3cc(-c4ccc(C#N)cc4)ccc3O2)CC1 (centres unmarked) [Example 4, 4-[5-(4-Cyano-phenyl)-2,3-dihydro-benzofuran-2-yl]-piperidine-1-carboxylic acid isopropyl ester]",6.70
7,"CS(=O)(=O)c1ccc(-c2ccc3c(c2)CC(C2CCN(C(=O)OC4CCC4)CC2)O3)cc1 (centres unmarked) [Example 5, 4-[5-(4-Methanesulfonyl-phenyl)-2,3-dihydro-benzofuran-2-yl]-piperidine-1-carboxylic acid cyclobutyl ester]",7.74
8,"Cc1cc(C#N)cnc1-c1ccc2c(c1)CC(C1CCN(C(=O)OC(C)C)CC1)O2 (centres unmarked) [Example 8, 4-[5-(5-Cyano-3-methyl-pyridin-2-yl)-2,3-dihydro-benzofuran-2-yl]-piperidine-1-carboxylic acid isopropyl ester]",6.64
9,"Cc1cc(-c2ccc3c(c2)CC(C2CCN(C(=O)OC(C)C)CC2)O3)cnc1C#N (centres unmarked) [Example 9, 4-[5-(6-Cyano-5-methyl-pyridin-3-yl)-2,3-dihydro-benzofuran-2-yl]-piperidine-1-carboxylic acid isopropyl ester]",6.36
10,"Cc1cc(S(C)(=O)=O)ccc1-c1ccc2c(c1)CC(C1CCN(C(=O)OC(C)C)CC1)O2 (centres unmarked) [Example 10, 4-[5-(4-Methanesulfonyl-2-methyl-phenyl)-2,3-dihydro-benzofuran-2-yl]-piperidine-1-carboxylic acid isopropyl ester]",6.92
11,"Cc1cc([S+](C)[O-])ccc1-c1ccc2c(c1)CC(C1CCN(C(=O)OC(C)C)CC1)O2 (centres unmarked) [Example 11, 4-[5-(4-Methanesulfinyl-2-methyl-phenyl)-2,3-dihydro-benzofuran-2-yl]-piperidine-1-carboxylic acid isopropyl ester]",6.52
12,"CC(C)(C)OC(=O)N1CCC(C2Cc3nc(-c4ccc(S(C)(=O)=O)cc4)cnc3O2)CC1 (centres unmarked) [Example 12, 4-[2-(4-Methanesulfonyl-phenyl)-6,7-dihydro-furo[2,3-b]byrazin-6-yl]-piperidine-1-carboxylic acid tert-butyl ester]",6.60
13,"CC(C)(C)OC(=O)N1CCC(C2Cc3nc(-c4ccc(S(C)(=O)=O)cc4)ccc3O2)CC1 (centres unmarked) [Example 13, 4-[5-(4-Methanesulfonyl-phenyl)-2,3-dihydro-furo[3,2-b]pyridin-2-yl]-piperidine-1-carboxylic acid tert-butyl ester]",6.67
14,"CC(C)(C)OC(=O)N1CCC(C2Cc3cc(-c4ccc(S(C)(=O)=O)cn4)ccc3O2)CC1 (centres unmarked) [Example 14, 4-[5-(5-Methanesulfonyl-pyridin-2-yl)-2,3-dihydro-benzofuran-2-yl]-piperidine-1-carboxylic acid tert-butyl ester]",7.89
15,"CC(C)(C)OC(=O)N1CCC(C2Cc3cc(-c4ccc(S(C)(=O)=O)cc4)ncc3O2)CC1 (centres unmarked) [Example 15, 4-[5-(4-Methanesulfonyl-phenyl)-2,3-dihydro-furo[2,3-c]pyridin-2-yl]-piperidine-1-carboxylic acid tert-butyl ester]",8.05
16,"CC(C)OC(=O)N1CCC(C2Cc3cc(-c4cncnc4)ccc3O2)CC1 (centres unmarked) [Example 16, 4-(5-Pyrimidin-5-yl-2,3-dihydro-benzofuran-2-yl)-piperidine-1-carboxylic acid isopropyl ester]",6.73
17,"CC1(OC(=O)N2CCC(C3Cc4cc(-c5ccc(S(C)(=O)=O)cc5)ccc4O3)CC2)CC1 (centres unmarked) [Example 17, 4-[5-(4-Methanesulfonyl-phenyl)-2,3-dihydro-benzofuran-2-yl]-piperidine-1-carboxylic acid 1-methyl-cyclopropyl ester]",7.34
18,"Cc1nc(S(C)(=O)=O)ccc1-c1ccc2c(c1)CC(C1CCN(C(=O)OC(C)C)CC1)O2 (centres unmarked) [Example 18, 4-[5-(6-Methanesulfonyl-2-methyl-pyridin-3-yl)-2,3-dihydro-benzofuran-2-yl]-piperidine-1-carboxylic acid isopropyl ester]",6.83
19,"Cc1cc(S(C)(=O)=O)ncc1-c1ccc2c(c1)CC(C1CCN(C(=O)OC(C)C)CC1)O2 (centres unmarked) [Example 19, 4-[5-(6-Methanesulfonyl-4-methyl-pyridin-3-yl)-2,3-dihydro-benzofuran-2-yl]-piperidine-1-carboxylic acid isopropyl ester]",6.00
20,"CC1(OC(=O)N2CCC(C3Cc4cc(-c5ccc(S(C)(=O)=O)cc5)ncc4O3)CC2)CC1 (centres unmarked) [Example 20, 4-[5-(4-Methanesulfonyl-phenyl)-2,3-dihydro-furo[2,3-c]pyridin-2-yl]-piperidine-1-carboxylic acid 1-methyl-cyclopropyl ester]",7.77
21,"CC(C)(C)OC(=O)N1CCC(C2Cc3cc(-c4cnco4)ccc3O2)CC1 (centres unmarked) [Example 21, 4-(5-Oxazol-5-yl-2,3-dihydro-benzofuran-2-yl)-piperidine-1-carboxylic acid tert-butyl ester]",7.11
22,"CC(C)(C)OC(=O)N1CCC(C2Cc3nc(-c4ccc(S(C)(=O)=O)cc4)ncc3O2)CC1 (centres unmarked) [Example 22, 4-[2-(4-Methanesulfonyl-phenyl)-6,7-dihydro-furo[3,2-d]pyrimidin-6-yl]-piperidine-1-carboxylic acid tert-butyl ester]",7.35
23,"CC(C)(C)OC(=O)N1CCC(C2Cc3cc(-c4ccc(S(C)(=O)=O)cc4F)ncc3O2)CC1 (centres unmarked) [Example 23, 4-[5-(2-Fluoro-4-methanesulfonyl-phenyl)-2,3-dihydro-furo[2,3-c]pyridin-2-yl]-piperidine-1-carboxylic acid tert-butyl ester]",7.74
24,"CS(=O)(=O)c1ccc(-c2cc3c(cn2)OC(C2CCN(C(=O)OC4CCC4)CC2)C3)cc1 (centres unmarked) [Example 24, 4-[5-(4-Methanesulfonyl-phenyl)-2,3-dihydro-furo[2,3-c]pyridin-2-yl]-piperidine-1-carboxylic acid cyclobutyl ester]",7.77
25,"CC(C)(C)OC(=O)N1CCC(C2Cc3cc(-c4ccc(C(N)=O)cc4F)ncc3O2)CC1 (centres unmarked) [Example 26, 4-[5-(4-Carbamoyl-2-fluoro-phenyl)-2,3-dihydro-furo[2,3-c]pyridin-2-yl]-piperidine-1-carboxylic acid tert-butyl ester]",7.06
26,"CNC(=O)c1ccc(-c2cc3c(cn2)OC(C2CCN(C(=O)OC(C)(C)C)CC2)C3)c(F)c1 (centres unmarked) [Example 27, 4-[5-(2-Fluoro-4-methylcarbamoyl-phenyl)-2,3-dihydro-furo[2,3-c]pyridin-2-yl]-piperidine-1-carboxylic acid tert-butyl ester]",7.62
27,"CC(C)(C)OC(=O)N1CCC(C2Cc3cc(-c4ccc(C#N)c(F)c4)ncc3O2)CC1 (centres unmarked) [Example 28, 4-[5-(4-Cyano-3-fluoro-phenyl)-2,3-dihydro-furo[2,3-c]hyridin-2-yl]-piperidine-1-carboxylic acid tert-butyl ester]",7.64
28,"CC(C)(C)OC(=O)N1CCC(C2Cc3cc(-c4ccc(C#N)cc4F)ncc3O2)CC1 (centres unmarked) [Example 29, 4-[5-(4-Cyano-2-fluoro-phenyl)-2,3-dihydro-furo[2,3-c]pyridin-2-yl]-piperidine-1-carboxylic acid tert-butyl ester]",7.92
29,"CC(C)(C)OC(=O)N1CCC(C2Cc3cc(-c4ccc(S(N)(=O)=O)cc4)ncc3O2)CC1 (centres unmarked) [Example 30, 4-[5-(4-Sulfamoyl-phenyl)-2,3-dihydro-furo[2,3-c]pyridin-2-yl]-piperidine-1-carboxylic acid tert-butyl ester]",7.08

# Source: patent US8669271B2 (Boehringer Ingelheim International GmbH, priority 2010, dated 2014)
